Patent publication US20020032183A1, “Use of (di-substituted-phenyl)-pyrimidinyl-imidazole derivatives as JNK-inhibitors” (priority 2000, published 2002)
Several values for one entry are separate records, joined by “and”; a condition that tells them apart may be missing. Equal entries are not always repeated. Where two headings read alike, the source gives them in different places. Marks after values point to notes of the source that are not given here.

Key:
[1] = target: T1, JNK3α1 (Homo sapiens, UniProt P53779); assay: Biochemical determination of inhibition of JNK3α1; details: truncated JNK3α1, 1 μM ATP, 0.5 μM GST-ATF2, 30° C., 30 min
T1 construct: Truncated JNK3α1 (amino acids 39-422) was expressed in E. coli; made in house; host or cells: E. coli
Procedure: Activation reactions were incubated at 30° C. for 2 h.
Enzyme inhibition studies were performed at 30° C. for 30 min with 0.5 μM GST-ATF2, 1 μM ATP, 1 nM activated JNK3α1 and compound ranging from 30 pM to 100 μM. Reactions were carried out in 100 μL volumes containing the final concentrations of the following: 25 mM HEPES (Sigma) pH 7.4; 10 mM MgCl2 (Sigma); 2 mM DTT (Sigma); 20 mM β-glycerophosphate (Sigma); 0.1 mM Na3VO4 (Sigma); 2 μCi [γ-^33P]ATP (2000 Ci/mmol; 1 Ci=37 GBq) (Amersham Pharmacia Biotech, Piscataway, N.J.). Reactions were stopped with 100 μL 100 mM EDTA/15 mM sodium pyrophosphate. Immobilon™-P 96-well plates (Millipore MAIPNOB™ 10, available from the Millipore Corp., Bedford, Mass.) were pretreated with 100 μL methanol, followed by 100 μL 15 mM sodium pyrophosphate. Fifty μL of the stopped reaction was spotted in triplicate on the Immobilon™-P 96-well plate. The samples were vacuum-filtered and washed three times each with 100 μL 75 mM H3PO4 to remove unincorporated [γ-^33P]ATP. After the third H3PO4 wash and a final filtration step to remove H3PO4, 50 μL of Microscint™-20 (Packard BioScience Ltd., Pangbourne, Berkshire, U.K.) was added to each well and samples were analyzed on a Packard Topcount™ liquid scintillation counter. IC50 values were determined by fitting the data to the equation for a four parameter logistic.

[2] = tested on: mouse cerebellar granule neurons; assay: Detection of neuronal apoptosis in mouse cerebellar granule neurons (low K+); assay type: cell-based; details: Neuron, low (5 mM) K+, serum-free, 8 h, FIG. 1, read-out: IC50 for inhibition of neuronal apoptosis
Procedure: 1. Dissect out cerebella from 7-9 day old CD-I mouse pups; remove meninges.
2. Mince and dissociate with trypsin. Halt trypsinization with Dnase I and egg white trypsin inhibitor.
3. Individual cells are obtained by trituration with a pasteur pipet.
4. Cells were resuspended in cell culture media [(cMEM) E-MEM), 25 mM glucose, 10% fetal bovine serum, 2 mM glutamine, 100 μg/mL gentamycin, 25 mM KCl] and seeded at 1.2×10^5 cells per well onto 96-well microplates pre-coated with poly-D-lysine.
5. Cultures were incubated at 37° C. in 6% CO2, and were used for experiments on day 5-7 in vitro.
1. Replace media in column 1 with serum-free cMEM. Replace medium in columns 2-12 with serum-free cMEM with low (5 mM) K+.
2. Add drug titrations (serial diluted in DMSO; final 1% DMSO). Incubate 8 h @ 37° C.
3. Spin plate @ 1500 rpm 10 min., remove media and add lysis buffer.
4. Incubate 30 min. room temp. shaking.
5. Spin plate @ 1500 rpm 10 min., transfer supernatant to fresh plate. Store @ 4° C.
6. Transfer 5 μL supernatant and 45 μL EIA reagent to EIA strip plate (positive control standards in column 12); incubate @ room temp 2 h.
7. Wash strip plate with PBS using the plate washer.
8. Add 150 μL K-blue substrate (ELISA Technologies, Inc., Gainsville, Fla.); stop using 50 μL Red Stop. Read plate @ 650 nm.

[3] = tested on: mesencephalic dopaminergic neurons; assay type: cell-based, rat; details: for TH-immunoreactive cell survival, Mean: 48 hours
From the text: Effects of Jnk Inhibition on Dopaminergic Neuronal Survival, In Vitro Following Treatment with the Neurotoxin MPP^+.
This protocol produces a yield of dopaminergic neurons of around 0.5-1%; this is equivalent to roughly 1000-1500 dopaminergic cells in the well. 14 day gestation Sprague-Dawley rats were killed by stunning and exsanguination. Embryos were removed and decapitated, and the ventral mesencephalon dissected from the brain. The tissue was dissociated by trypsin (0.25% in Hank's BSS) digestion for 20 minutes. The trypsin was neutralized by addition of an excess of serum containing medium and the cells centrifuged at 1000 rpm for 10 minutes. The cell pellet was resuspended in DMEM/10% FCS, and a single cell suspension prepared by mechanical dissociation and passage through a 70 μm cell strainer. Trypan blue excluding cells were counted in a haemocytometer, and cells were plated into poly-D-lysine treated 8-well chamber slides at a density of 2×10^5 cells/well in Dulbecco's MEM supplemented with 10% FCS. Cultures were incubated for 24 hours at 37° C./5% CO2, then the medium was replaced with DMEM supplemented with SATO (final concentration; 4.3 mg/ml BSA, 0.77 μg/ml progesterone, 20 μg/ml putrescine, 0.49 μg/ml L-thyroxine, 0.048 μg/ml selenium and 0.42 μg/ml tri-iodo-thyronine).
Cultures were incubated for 5 days, then removed from the incubator and treated with compounds. Jnk inhibitors were added at concentrations ranging from 1 nM to 1 μM to 4 independent wells per concentration. 15 minutes following addition of Jnk inhibitors, MPP^+ was added directly to the wells to give a final concentration in the well of 10 μM. 4 wells were treated with MPP^+ 10 μM alone, and 4 left as untreated controls. zVAD-fmk 300 μM and Example 2 500 nM were used as positive controls. Once compounds and MPP^+ had been added, cultures were returned to the incubator at 37° C./5% CO2 for a further 48 hours prior to fixation and immunostaining.
To determine the numbers of surviving dopaminergic neurons, immunocytochemistry was carried out using a rabbit polyclonal antibody raised against TH. Non-specific binding sites were blocked using 10% normal goat serum in PBS, then primary antibody was added at 4° C. overnight. The next day, the cells were washed and treated with biotin conjugated goat anti-rabbit IgG for one hour, followed by peroxidase conjugated avidin biotin complex, both made up from the Vectastain® Elite ABC kit (Vector Laboratories, Burlingame, Calif.) according to the manufacturer's instructions. Staining was visualized using Vector™ SG (Vector Laboratories) insoluble peroxidase substrate according to the manufacturer's instructions. Following staining, the gaskets were removed from the chamber slides, and the slides mounted using aqueous mountant. Slides were blinded by another investigator before quantification of TH-immunoreactive cell survival. To determine TH-immunoreactive cell survival, cells were visualized using transmitted light on a Zeiss Axiovert inverted microscope using a 10X objective. Counts were made of all the TH-immunoreactive cells present in each well.
Data analysis was performed using a one way analysis of variance, followed by Dunnett's t-test. In each case the data refer to one representative experiment, with four independent replicates for each data point. […] Data shown are normalized to percentage of control response; all statistical analyses, however, were carried out on the cell counts.

T1 sequence (P53779 39-422 isoform P53779-2): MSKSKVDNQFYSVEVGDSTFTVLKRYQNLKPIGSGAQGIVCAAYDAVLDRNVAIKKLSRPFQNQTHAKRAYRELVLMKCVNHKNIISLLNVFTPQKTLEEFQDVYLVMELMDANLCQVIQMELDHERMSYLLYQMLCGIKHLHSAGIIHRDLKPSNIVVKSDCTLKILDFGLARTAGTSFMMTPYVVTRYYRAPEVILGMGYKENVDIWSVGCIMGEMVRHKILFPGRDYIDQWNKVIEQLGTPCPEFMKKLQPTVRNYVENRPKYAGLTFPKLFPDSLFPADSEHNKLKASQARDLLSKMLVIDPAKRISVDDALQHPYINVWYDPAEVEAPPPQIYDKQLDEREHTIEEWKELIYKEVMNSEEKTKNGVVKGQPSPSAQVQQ

CCCn1c(C2CCN(C)CC2)nc(-c2ccc(Cl)c(Cl)c2)c1-c1ccnc(NC2CC2)n1 [Example 2, Cyclopropyl-{4-[5-(3,4-dichlorophenyl)-2-[(1-methyl)-piperidin]-4-yl-3-propyl-3H-imidazol-4-yl]-pyrimidin-2-yl}amine]
IC50 [1]: 0.007 µM
IC50 [2]: 0.1 µM
TH-immunoreactive cell survival, Mean ([3]; 1 nM + MPP+ 10 μM): 54.72 % of untreated control
TH-immunoreactive cell survival, Mean ([3]; 10 nM + MPP+ 10 μM): 60.77* % of untreated control
TH-immunoreactive cell survival, Mean ([3]; 100 nM + MPP+ 10 μM): 59.95* % of untreated control
TH-immunoreactive cell survival, Mean ([3]; 500 nM + MPP+ 10 μM): 72 % of untreated control and 72.41** % of untreated control
TH-immunoreactive cell survival, Mean ([3]; 1 μM + MPP+ 10 μM): 71.14** % of untreated control
TH-immunoreactive cell survival, Mean ([3]; 10 μM + MPP+ 10 μM): 32.08 % of untreated control
Non-specific toxicity ([3]; 10 μM treatment): Non-specific toxicity is observed
Concentrations giving significant increases in survival ([3]; MPP+ 10 μM, p<0.05): ≥ 10 nM
